Reference: PubChem BioAssay (NCI)
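All cell lines were grown in 96-well plates and treated with compound for 48 hours. TGI: total growth inhibition.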

Assays:
Experiment in all cases: growth of human tumour cells (NCI), 48 h
A498 renal = test system: A498 renal
ACHN renal = test system: ACHN renal
CAKI-1 renal = test system: CAKI-1 renal
CCRF-CEM leukemia = test system: CCRF-CEM leukemia
EKVX NSCLC = test system: EKVX NSCLC
HCC-2998 colon = test system: HCC-2998 colon
HCT-116 colon = test system: HCT-116 colon
HCT-15 colon = test system: HCT-15 colon
HL-60(TB) leukemia = test system: HL-60(TB) leukemia
HOP-62 NSCLC = test system: HOP-62 NSCLC
HT29 colon = test system: HT29 colon
IGROV1 ovarian = test system: IGROV1 ovarian
K-562 leukemia = test system: K-562 leukemia
KM12 colon = test system: KM12 colon
M14 melanoma = test system: M14 melanoma
MALME-3M melanoma = test system: MALME-3M melanoma
MDA-MB-231 breast = test system: MDA-MB-231 breast
MDA-MB-435 = test system: MDA-MB-435
MDA-N = test system: MDA-N
MOLT-4 leukemia = test system: MOLT-4 leukemia
NCI-H23 lung = test system: NCI-H23 lung
NCI-H460 lung = test system: NCI-H460 lung
OVCAR-3 ovarian = test system: OVCAR-3 ovarian
OVCAR-4 ovarian = test system: OVCAR-4 ovarian
OVCAR-5 ovarian = test system: OVCAR-5 ovarian
PC-3 prostate = test system: PC-3 prostate
RPMI-8226 leukemia = test system: RPMI-8226 leukemia
SK-MEL-2 melanoma = test system: SK-MEL-2 melanoma
SK-OV-3 ovarian = test system: SK-OV-3 ovarian
SN12C renal = test system: SN12C renal
SNB-19 CNS = test system: SNB-19 CNS
SNB-75 CNS = test system: SNB-75 CNS
SR leukemia = test system: SR leukemia
SW-620 colon = test system: SW-620 colon
T-47D breast = test system: T-47D breast
TK-10 renal = test system: TK-10 renal
UACC-257 melanoma = test system: UACC-257 melanoma
UACC-62 melanoma = test system: UACC-62 melanoma
786-0 renal = test system: 786-0 renal
A549 NSCLC = test system: A549 NSCLC
COLO 205 colon = test system: COLO 205 colon
HOP-92 NSCLC = test system: HOP-92 NSCLC
HS 578T breast = test system: HS 578T breast
LOX IMVI melanoma = test system: LOX IMVI melanoma
MCF7 breast = test system: MCF7 breast
NCI-H226 lung = test system: NCI-H226 lung
NCI/ADR-RES ovarian = test system: NCI/ADR-RES ovarian
OVCAR-8 ovarian = test system: OVCAR-8 ovarian
RXF 393 renal = test system: RXF 393 renal
SF-268 CNS = test system: SF-268 CNS
SF-295 CNS = test system: SF-295 CNS
SF-539 CNS = test system: SF-539 CNS
SK-MEL-28 melanoma = test system: SK-MEL-28 melanoma
SK-MEL-5 melanoma = test system: SK-MEL-5 melanoma
U251 CNS = test system: U251 CNS
UO-31 renal = test system: UO-31 renal
DU-145 prostate = test system: DU-145 prostate
NCI-H522 lung = test system: NCI-H522 lung

N=c1c2c(ncn1N)Oc1c(c(-c3ccccc3)nn1-c1ccccc1)C2c1ccc(Cl)cc1 (stereo not given)
TGI (A498 renal): 4.32 µM | TGI (ACHN renal): 3.46 µM | TGI (CAKI-1 renal): 3.71 µM | TGI (CCRF-CEM leukemia): > 100 µM | TGI (EKVX NSCLC): 3.39 µM | TGI (HCC-2998 colon): 3.08 µM | TGI (HCT-116 colon): 3.03 µM | TGI (HCT-15 colon): 3.65 µM | TGI (HL-60(TB) leukemia): > 100 µM | TGI (HOP-62 NSCLC): 3.02 µM | TGI (HT29 colon): 2.77 µM | TGI (IGROV1 ovarian): 2.8 µM | TGI (K-562 leukemia): > 100 µM | TGI (KM12 colon): 2.99 µM | TGI (M14 melanoma): 3.18 µM | TGI (MALME-3M melanoma): 3.1 µM | TGI (MDA-MB-231 breast): 5.21 µM | TGI (MDA-MB-435): 3.46 µM | TGI (MDA-N): 3.86 µM | TGI (MOLT-4 leukemia): > 100 µM | TGI (NCI-H23 lung): 3.31 µM | TGI (NCI-H460 lung): 2.99 µM | TGI (OVCAR-3 ovarian): 3.11 µM | TGI (OVCAR-4 ovarian): 3.24 µM | TGI (OVCAR-5 ovarian): 2.93 µM | TGI (PC-3 prostate): 3.01 µM | TGI (RPMI-8226 leukemia): > 100 µM | TGI (SK-MEL-2 melanoma): 3.1 µM | TGI (SK-OV-3 ovarian): 3.37 µM | TGI (SN12C renal): 3.89 µM | TGI (SNB-19 CNS): 2.86 µM | TGI (SNB-75 CNS): 2.83 µM | TGI (SR leukemia): > 100 µM | TGI (SW-620 colon): 4.5 µM | TGI (T-47D breast): 4.99 µM | TGI (TK-10 renal): 3.47 µM | TGI (UACC-257 melanoma): 3.71 µM | TGI (UACC-62 melanoma): 3.16 µM

C=C1C(=O)O[C@@H]2[C@H]1CC[C@H](C)[C@]1(O)CCC(=O)[C@@]21C
TGI (786-0 renal): > 10 µM | TGI (A549 NSCLC): > 10 µM | TGI (CCRF-CEM leukemia): > 10 µM | TGI (COLO 205 colon): > 10 µM | TGI (EKVX NSCLC): > 10 µM | TGI (HCC-2998 colon): > 10 µM | TGI (HCT-116 colon): > 10 µM | TGI (HCT-15 colon): > 10 µM | TGI (HL-60(TB) leukemia): > 10 µM | TGI (HOP-62 NSCLC): > 10 µM | TGI (HOP-92 NSCLC): > 10 µM | TGI (HS 578T breast): > 10 µM | TGI (HT29 colon): > 10 µM | TGI (IGROV1 ovarian): > 10 µM | TGI (K-562 leukemia): > 10 µM | TGI (KM12 colon): > 10 µM | TGI (LOX IMVI melanoma): > 10 µM | TGI (MALME-3M melanoma): > 10 µM | TGI (MCF7 breast): > 10 µM | TGI (MDA-MB-435): > 10 µM | TGI (MDA-N): > 10 µM | TGI (MOLT-4 leukemia): > 10 µM | TGI (NCI-H226 lung): > 10 µM | TGI (NCI-H23 lung): > 10 µM | TGI (NCI/ADR-RES ovarian): > 10 µM | TGI (OVCAR-3 ovarian): > 10 µM | TGI (OVCAR-4 ovarian): > 10 µM | TGI (OVCAR-8 ovarian): > 10 µM | TGI (PC-3 prostate): > 10 µM | TGI (RPMI-8226 leukemia): > 10 µM | TGI (RXF 393 renal): > 10 µM | TGI (SF-268 CNS): > 10 µM | TGI (SF-295 CNS): > 10 µM | TGI (SF-539 CNS): > 10 µM | TGI (SK-MEL-2 melanoma): > 10 µM | TGI (SK-MEL-28 melanoma): > 10 µM | TGI (SK-MEL-5 melanoma): > 10 µM | TGI (SK-OV-3 ovarian): > 10 µM | TGI (SN12C renal): > 10 µM | TGI (SNB-19 CNS): > 10 µM | TGI (SNB-75 CNS): > 10 µM | TGI (SR leukemia): > 10 µM | TGI (SW-620 colon): > 10 µM | TGI (T-47D breast): > 10 µM | TGI (TK-10 renal): > 10 µM | TGI (U251 CNS): > 10 µM | TGI (UACC-62 melanoma): > 10 µM | TGI (UO-31 renal): 4.76 µM

CC(=O)N1NC(c2ccccc2)=CC(=O)/C1=C/C(=O)c1ccccc1
TGI (786-0 renal): > 100 µM | TGI (A498 renal): > 100 µM | TGI (A549 NSCLC): > 100 µM | TGI (ACHN renal): > 100 µM | TGI (CAKI-1 renal): > 100 µM | TGI (CCRF-CEM leukemia): > 100 µM | TGI (COLO 205 colon): > 100 µM | TGI (DU-145 prostate): > 100 µM | TGI (EKVX NSCLC): > 100 µM | TGI (HCC-2998 colon): > 100 µM | TGI (HCT-116 colon): > 100 µM | TGI (HCT-15 colon): > 100 µM | TGI (HL-60(TB) leukemia): 76.3 µM | TGI (HOP-62 NSCLC): > 100 µM | TGI (HOP-92 NSCLC): > 100 µM | TGI (HS 578T breast): > 100 µM | TGI (HT29 colon): > 100 µM | TGI (IGROV1 ovarian): > 100 µM | TGI (K-562 leukemia): > 100 µM | TGI (KM12 colon): > 100 µM | TGI (LOX IMVI melanoma): > 100 µM | TGI (M14 melanoma): > 100 µM | TGI (MALME-3M melanoma): > 100 µM | TGI (MCF7 breast): > 100 µM | TGI (MDA-MB-231 breast): > 100 µM | TGI (MDA-MB-435): 43.1 µM | TGI (MDA-N): > 100 µM | TGI (MOLT-4 leukemia): > 100 µM | TGI (NCI-H226 lung): > 100 µM | TGI (NCI-H23 lung): > 100 µM | TGI (NCI-H460 lung): > 100 µM | TGI (NCI-H522 lung): 57.2 µM | TGI (NCI/ADR-RES ovarian): > 100 µM | TGI (OVCAR-3 ovarian): > 100 µM | TGI (OVCAR-4 ovarian): > 100 µM | TGI (OVCAR-5 ovarian): > 100 µM | TGI (OVCAR-8 ovarian): > 100 µM | TGI (PC-3 prostate): > 100 µM | TGI (RPMI-8226 leukemia): > 100 µM | TGI (RXF 393 renal): 83 µM | TGI (SF-268 CNS): 99.3 µM | TGI (SF-295 CNS): > 100 µM | TGI (SF-539 CNS): > 100 µM | TGI (SK-MEL-2 melanoma): > 100 µM | TGI (SK-MEL-28 melanoma): > 100 µM | TGI (SK-MEL-5 melanoma): > 100 µM | TGI (SK-OV-3 ovarian): > 100 µM | TGI (SN12C renal): > 100 µM | TGI (SNB-19 CNS): > 100 µM | TGI (SR leukemia): 57.8 µM | TGI (T-47D breast): > 100 µM | TGI (TK-10 renal): > 100 µM | TGI (U251 CNS): > 100 µM | TGI (UACC-257 melanoma): > 100 µM | TGI (UACC-62 melanoma): > 100 µM | TGI (UO-31 renal): > 100 µM

Cc1nnc(Nc2ccc(Cl)cc2)o1
TGI (786-0 renal): > 10 µM | TGI (A498 renal): > 10 µM | TGI (A549 NSCLC): > 10 µM | TGI (ACHN renal): > 10 µM | TGI (CAKI-1 renal): > 10 µM | TGI (CCRF-CEM leukemia): > 10 µM | TGI (COLO 205 colon): > 10 µM | TGI (DU-145 prostate): > 10 µM | TGI (EKVX NSCLC): > 10 µM | TGI (HCC-2998 colon): > 10 µM | TGI (HCT-116 colon): > 10 µM | TGI (HCT-15 colon): > 10 µM | TGI (HL-60(TB) leukemia): > 10 µM | TGI (HOP-62 NSCLC): > 10 µM | TGI (HS 578T breast): > 10 µM | TGI (HT29 colon): > 10 µM | TGI (IGROV1 ovarian): > 10 µM | TGI (K-562 leukemia): > 10 µM | TGI (KM12 colon): > 10 µM | TGI (LOX IMVI melanoma): > 10 µM | TGI (M14 melanoma): > 10 µM | TGI (MALME-3M melanoma): > 10 µM | TGI (MCF7 breast): > 10 µM | TGI (MDA-MB-231 breast): > 10 µM | TGI (MDA-MB-435): > 10 µM | TGI (MDA-N): > 10 µM | TGI (NCI-H226 lung): > 10 µM | TGI (NCI-H23 lung): > 10 µM | TGI (NCI-H460 lung): > 10 µM | TGI (NCI-H522 lung): > 10 µM | TGI (NCI/ADR-RES ovarian): > 10 µM | TGI (OVCAR-3 ovarian): > 10 µM | TGI (OVCAR-4 ovarian): > 10 µM | TGI (OVCAR-8 ovarian): > 10 µM | TGI (PC-3 prostate): > 10 µM | TGI (RXF 393 renal): > 10 µM | TGI (SF-268 CNS): > 10 µM | TGI (SF-295 CNS): > 10 µM | TGI (SF-539 CNS): > 10 µM | TGI (SK-MEL-2 melanoma): > 10 µM | TGI (SK-MEL-28 melanoma): > 10 µM | TGI (SK-MEL-5 melanoma): > 10 µM | TGI (SK-OV-3 ovarian): > 10 µM | TGI (SN12C renal): > 10 µM | TGI (SNB-19 CNS): > 10 µM | TGI (SNB-75 CNS): > 10 µM | TGI (SW-620 colon): > 10 µM | TGI (T-47D breast): > 10 µM | TGI (TK-10 renal): > 10 µM | TGI (U251 CNS): > 10 µM | TGI (UACC-257 melanoma): > 10 µM | TGI (UACC-62 melanoma): > 10 µM | TGI (UO-31 renal): > 10 µM
